Columns and labels:
[1] = test system: poly-Ala RAN proteins; assay: Protein blots for poly-Ala RAN proteins in HEK293T cells transfected with CAG expansion constructs; format: cell-based; conditions: treatment with different concentrations of quercetin, or metformin
From the text: cDNA constructs. […] Antibodies. […] Western blotting. […] Quantification and statistical analysis.

[2] = test system: C9orf72 ALS/FTD mice (C9); assay: DigiGait gait analysis; format: in vivo; conditions: 18 week female mice
Description: Gait analysis. Digital video images of the underside of the mouse were collected with a high-speed video camera from below the transparent belt of a motorized treadmill (DigiGait™ Imaging system, Mouse Specific). Female C9orf72 ALS/FTD mice (C9) mice and their littermates (non-transgenic mice (NT)) were tested at 18 weeks of age with treatment beginning at 8 weeks of age. Each mouse was allowed to explore the treadmill compartment with the motor speed set to 14 cm/s for 1 min, then the motor speed was increased to 24c m/s for video recording. Only video recordings in which the mouse walked straight ahead with a constant relative position with respect to the camera were used for analysis. Data from each hind paw was analyzed with DigiGait automated gait analysis software (Mouse Specifics). For additional details, see Neuron, 2016, 90(3), 521-34. doi: 10.1016/j.neuron.2016.04.005. Mock treatment is vehicle only, meaning chow without quercetin.

[3] = Quercetin-NT vs Quercetin C9, significance

CN(C)C(=N)NC(=N)N [metformin]
reduction: polyAla RAN proteins expressed from (CAG)exp [1]

O=c1c(O)c(-c2ccc(O)c(O)c2)oc2cc(O)cc(O)c12 [quercetin]
ns: Absolute PawAngle (deg) [2, 3] | Ataxia Coefficient (real#) [2, 3] | Axis Distance (cm/s) [2, 3] | Brake (s) [2, 3] | BrakeStance (%) [2, 3] | BrakeStride (%) [2, 3] | Gait Symmetry (real#) [2, 3] | Hind Limb Shared Stance Time (s) [2, 3] | MAX dA/dT (cm^2/s) [2, 3] | MIN dA/dT (cm^2/s) [2, 3] | Midline Distance (cm) [2, 3] | Overlap Distance (cm) [2, 3] | Paw Angle Variability (deg) [2, 3] | Paw Area Variability at Peak Stance in sq. cm (cm^2) [2, 3] | Paw Area at Peak Stance in sq. cm (cm^2) [2, 3] | Paw Drag (real#) [2, 3] | PawAngle (deg) [2, 3] | PawPlacementPositioning[PPP] (cm) [2, 3] | Propel (s) [2, 3] | PropelStance (%) [2, 3] | PropelStride (%) [2, 3] | SLVar (cm) [2, 3] | SWVar (cm) [2, 3] | Shared Stance (%) [2, 3] | Stance (s) [2, 3] | Stance/Swing (real#) [2, 3] | StanceFactor (real#) [2, 3] | StanceStride (%) [2, 3] | StanceWidth (cm) [2, 3] | StepAngle (deg) [2, 3] | StepAngle Var (deg) [2, 3] | Steps (real#) [2, 3] | Stride (s) [2, 3] | Stride Frequency (steps/s) [2, 3] | StrideLength (cm) [2, 3] | Swing (%) [2, 3] | SwingStride (%) [2, 3] | Tau - Propulsion (real#) [2, 3]
reduction: polyAla RAN proteins expressed from (CAG)exp [1]
corrected: 13 gait abnormalities found between C9orf72 ALS/FTD mice (C9) vs. non-transgenic (NT) mice ([2]; DigiGait, treatment beginning at 8 weeks, quercetin in chow)
